One series has as its system U-87 MG cells. Nature of the series: Cell proliferation assay (CCK-8, day 10). The class given is cell-based. Conditions: Homo sapiens, 240 h, U-87 MG cell line, read-out: Prolif. IC50. The method, then: One day before experiment, Granta-519 cells were passaged to a density of 0.5×10^6 cells/ml. U-87 MG cells were trypsinized and 2,000 cells were seeded into 96-well plates and allowed to grow overnight. On the day of experiment (day 0), Granta-519 Cells were spun down at 1,500 rpm for 4 min, resuspended in fresh medium to 0.5×10^6 cells/ml and 190 μL of cells were added to 96 well plates. For U-87 MG cells, old medium was removed and replaced with 190 uL fresh medium. Compound working stocks were first diluted at 1:50 with fresh medium in 96 well plate and 10 μL of diluted drugs were added to 96 well plates containing cells and incubated for 3 days. DMSO was used a vehicle control.
One day 3, 50 μL of Granta-519 cells were transferred to a new 96-well plate and 140 uL fresh medium was added. […]
On day 10, 100 μL Granta-519 cells were transferred to a new 96 well plate and 10 μL of Cell Counting Kit-8 (CCK-8, Jojindo, CK04-13) solution was added. […] Plates were incubated in CO2 incubator for 2 hours (Granta-519 cells) or 30 min (U-87 MG cells) and OD450 values were measured with a microplate reader (iMark microplate reader, Bio-Rad). Percentage of viable cells, relative to DMSO vehicle control, were calculated and plotted in Graphpad Prism ([Inhibitor] vs. normalized response−Variable slope) to determine proliferation IC50 values on day 10. […]

Series [1] is described as follows: Solubility of HCl salt in solvents, saturated solution analyzed by HPLC. The class given is physicochemical. Particulars: thermodynamic from solid; for solubility: 21 °C, 21 ± 1° C.; for solubility at 24 hr: 50 °C, 50 ± 1° C. The method, then:
3 mL of the tested solvent was added to a 4 mL of vial. Formula IA was added until a cloudy solution was obtained at 21±1° C. About 30 mg additional Formula IA was added to the cloudy solution. The mixture was agitated at 21±1° C. for a weekend, during which the temperature was controlled by IKA® ETS-D5 temperature controller and IKA® RCT basic safety control. The mixture was filtered using a syringe filter (PTFE, […], 13 mm, Agela Technologies Inc.). The satuatred solution was transferred into an HPLC vial, diluted with methanol, and analyzed by HPLC.
2 mL of the tested solvent was added to a 4 mL of vial. Formula IA was added until a cloudy solution was obtained at 50±1° C. About 30 mg additional Formula IA was added to the cloudy solution. The mixture was agitated at 50±1° C. for 24 hr, during which the temperature was controlled by IKA® ETS-D5 temperature controller and IKA® RCT basic safety control. The mixture was filtered using a syringe filter (PTFE, […], 13 mm, Agela Technologies Inc.). The saturated solution was transferred into an HPLC vial, diluted with methanol, and analyzed by HPLC.

The mark [2] stands for this setting: organic solvent or mixture, EtOAc.
Setting [3] is: organic solvent or mixture, EtOH.
Where [4] appears, read: organic solvent or mixture, IPA.
Where [5] appears, read: organic solvent or mixture, IPAc.
[6] abbreviates: organic solvent or mixture, MeCN.
Where [7] appears, read: organic solvent or mixture, Methanol.

Consider `Cc1ncnc2c1ccn2[C@@H]1O[C@H]([C@@H]2OCCc3cc(Cl)ccc32)[C@@H](O)[C@H]1O` [Formula I, (2S,3S,4R,5R)-2-((R)-6-chloroisochroman-1-yl)-5-(4-methyl-7H-pyrrolo[2,3-d]pyrimidin-7-yl)tetrahydrofuran-3,4-diol], for which the concentration for half-maximal inhibition (IC50) with U-87 MG cells was determined as 0.054 µM.
As to `Cc1ncnc2c1ccn2[C@@H]1O[C@H]([C@@H]2OCCc3cc(Cl)ccc32)[C@@H](O)[C@H]1O` [Formula IA, (2S,3S,4R,5R)-2-((R)-6-chloroisochroman-1-yl)-5-(4-methyl-7H-pyrrolo[2,3-d]pyrimidin-7-yl)tetrahydrofuran-3,4-diol], the solubility in series [1] (setting [2]) is 120 µg/mL; in series [1] (setting [3]), 7640 µg/mL; in series [1] (setting [4]), 960 µg/mL; in series [1] (setting [5]), 160 µg/mL; in series [1] (setting [6]) it was 690 µg/mL; in series [1] (setting [7]) it was over 50000 µg/mL. Further, in series [1] (Water), the solubility amounted to 14700 µg/mL. The solubility at 24 hr in series [1] (setting [2]) was 160 µg/mL; in series [1] (setting [3]), 10800 µg/mL; in series [1] (setting [4]), 1990 µg/mL; in series [1] (setting [5]) it was 240 µg/mL; in series [1] (setting [6]), 1050 µg/mL; in series [1] (setting [7]), over 50000 µg/mL. Further, the solubility at 24 hr in series [1] (Water) is 43800 µg/mL.

Source of the values: patent US12414953B2, “Selective inhibitors of protein arginine methyltransferase 5 (PRMT5)” (Prelude Therapeutics, Incorporated, priority 2019, dated 2025).
